Entries after “also recorded” stand apart in the source; their conditions may differ.
Experiments:
Type in all cases: in vivo, C57BL/6J mice
[1] = system: mice exposed to unpredictable chronic mild stress (UCMS); test: Elevated plus maze after UCMS; details: for EPM percentage of entries into open arms: first cohort (Figure 2)
[2] = system: mice exposed to unpredictable chronic mild stress (UCMS); test: Composite emotionality Z-score across EPM, OFT, NSF, cookie test
Procedure: To assess the consistency of effects of stress and drug treatment on overall stress-induced behavior, we calculated behavioral z-scores using the formula below. These normalized scores integrate measures of behavioral dimensions (e.g., emotionality) over time and tests, yielding a combined measure of the UCMS-induced behavioral syndrome ([Guilloux et al., 2011]).
Briefly, for each behavioral measure a Z-score was calculated for an individual animal indicating how many standard deviations (σ) a given observation (X) is from the mean of the control group (μ). These scores were averaged within test such that each test had the same weight, and then averaged across all four tests (EPM, OFT, NSF, cookie test) to obtain a composite emotionality Z-score for each mouse. In short, random or opposite behavior across tests yield null z-scores, whereas significant and/or trend-like behaviors across tests and consistently in the same directions yield high z-scores.

[3] = system: α5 protein; test: Total and surface α5 protein, surface biotinylation and Western blotting; details: acute or chronic treatment
Procedure: Dissected hippocampi were processed as described in [Pabba et al. (2014)] with minor modifications.
The following antibodies and their dilutions were used in this study: rabbit polyclonal anti-α5 (1:750; Thermo Fisher Scientific, Waltham, MA, USA), rabbit monoclonal anti-β1-[…] (NK-ATPase) (1:1000; Abcam, Cambridge, MA, USA), and mouse monoclonal anti-β-actin (1:100; Abcam, Cambridge, MA, USA).
Western blotting was performed using 5 μg of protein resolved on 8% SDS-PAGE and transferred onto PVDF membranes and developed using IR-Dye conjugated secondary antibody and detection using LI-COR (NE, USA). Quantification of bands was performed using Image Studio^TM Software (LI-COR, NE, USA). We analyzed α5 surface biotinylation in vehicle versus drug treated mice (N = 6 females and 4 males per group). Total α5 band intensities were normalized to β-actin, whereas surface α5 band intensities were normalized to NK-ATPase.

[4] = system: mice exposed to unpredictable chronic mild stress (UCMS); test: Cookie test after UCMS
Text: Mice underwent between 6 and 8 weeks of UCMS (see Supplementary Table S1 for example UCMS schedule). Animals were exposed to 2–3 mild stressors each day throughout the light/dark cycle, including wet bedding, brief restraint, forced bath, no bedding, reduced space, and predator odor over a period of several weeks (see details in Supplementary Material) ([Edgar et al., 2011]; [Lin and Sibille, 2015]). Female mice were housed 5 per cage, and male mice were housed 4 per cage in Optimice cages (Animal Care Systems Inc, Centennial, CO, USA). In experiment 3.4, UCMS was augmented with single-cage isolation housing in male mice beginning at the fourth week of UCMS until sacrifice. A timeline of experimental procedures can be found in Figure 2A (including timeline of the sections “ Drug Treatment” and “Behavioral Testing”).
At the start of the third week of UCMS and continuing for between 28 and 42 days (including time for behavioral tests, see “Behavioral Testing”) until sacrifice, mice received daily i.p injections of vehicle (85% ddH2O, 14% propylene glycol, 1% Tween 80) or 30 mg/kg SH-053-2’F-R-CH3 (α5-PAM; synthesized in the laboratory of Dr. James M. Cook) in a volume of […]. All animals received a single daily injection (chronic α5-PAM treated mice received SH-053-2’F-R-CH3, acute α5-PAM and vehicle treated animals received vehicle injections) between 8:00AM and 9:00AM until the start of behavioral testing. After 3 weeks of treatment, all mice began receiving a second injection 30 min prior to behavioral testing. All animals received a second injection of either vehicle (for chronic α5-PAM treated animals and UCMS-vehicle treated animals) or α5-PAM acutely (α5-PAM acute animals). All injections were performed using ultra-fine insulin syringes (31 gauge, 6 mm; Becton, Dickinson and Company, Franklin Lakes, NJ, USA).
After 5 weeks of UCMS, including 3 weeks of drug treatment, animals were assessed in a battery of behavioral tests (each test separated by 48 h, UCMS continued throughout behavioral testing for a period of 1–3 weeks). These tests included: Elevated plus maze: under red light, animals were placed on a plus maze with two open and two closed arms (30 cm × 5 cm). Number of entries into all arms as well as the time spent in the open arms was recorded for 10 min. Open field test: The open field test was conducted in a 43 cm ×43 cm arena under bright (800 lux) light. Using AnyMaze software (Stoelting, Wood Dale, IL, USA), the center 50% of the arena was identified and animals were tracked for 10 min. Novelty suppressed feeding test: Mice were food deprived for 24 h the day before testing. Testing occurred in brightly lit (∼1000 lux) open field arenas covered in bedding. A normal food pellet was placed into the brightly lit center and the latency for an animal to approach and bite the pellet was recorded over a 12 min session. Immediately following the session, animals were placed into their home cage and allowed to eat a weighed food pellet to assess hunger drive. Cookie test: The cookie test apparatus contains three identically sized chambers (40 cm × 20 cm × 20 cm) separated by two offset dividers. The outer walls of each chamber were clear and the only difference between each was the color of the divider, with one divider shaded white and the other black. One week prior to experimentation, mice were habituated in their home cage to a piece (2 ± 1 g) of Keebler Fudge Stripe Cookie (Kellogg’s Company, Battle Creek, MI, USA). On the first and second day of testing, a piece of cookie (2 ± 1 g) was placed into the chamber separated by the black divider. Mice were then placed into the opposing chamber separated by the white divider and monitored for 10 min. The latency for each mouse to bite the cookie was recorded. […]

[5] = male UCMS mice, 37.5 mg/kg acute or chronic (Figure 4B), 37.5 mg/kg
[6] = male mice, UCMS plus single housing, chronic treatment (Figure 4A)
[7] = female UCMS mice, acute 30 mg/kg i.p., first cohort (Figure 2)
[8] = female UCMS mice, acute treatment, vs UCMS-vehicle, second cohort (Figure 3)
[9] = female UCMS mice, chronic 30 mg/kg i.p., first cohort (Figure 2)
[10] = female UCMS mice, chronic treatment, vs UCMS-vehicle, second cohort (Figure 3)
[11] = male UCMS mice, acute or chronic 30 mg/kg i.p., first cohort (Figure 2)

SMILES: C#Cc1ccc2c(c1)C(c1ccccc1F)=N[C@H](C)c1c(C(=O)OCC)ncn1-2 [α5-PAM]
- EPM open arm behavior ([1]; female UCMS mice, acute or chronic treatment, second cohort with non-stressed controls (Figure 3)): no effect
- EPM percentage of entries into open arms ([1]; female UCMS mice, chronic 30 mg/kg i.p., vs UCMS-vehicle): anti-stress effect; also recorded: increased percentage of open arm entries
- EPM, stress-induced behavior [1, 5]: No change; also recorded: failed to reduce
- EPM percentage of entries into open arms ([1]; male UCMS mice, acute or chronic 30 mg/kg i.p.): No significant differences; also recorded: no effect
- EPM, UCMS-induced behavioral phenotype [1, 6]: did not alter; also recorded: No significant effect
- Z-emotionality score [2, 7]: Significant anti-stress effect
- Z-emotionality score compared to non-stressed vehicle group ([2]; female UCMS mice, acute and chronic treatment groups, second cohort (Figure 3)): not statistically different
- Z-emotionality score [2, 8]: normalized; also recorded: significantly decreased
- Z-emotionality score [2, 9]: Significant anti-stress effect
- Z-emotionality score [2, 10]: normalized; also recorded: significantly decreased
- Composite emotionality Z-score ([2]; male UCMS mice, 37.5 mg/kg acute or chronic (Figure 4D), 37.5 mg/kg): No effect; also recorded: lack of anti-stress activity
- Z-emotionality score [2, 11]: no effect
- Summary emotionality Z-score ([2]; male mice, UCMS plus single housing, chronic treatment (Figure 4C)): lack of effect; also recorded: does not remediate
- total or surface α5 protein expression, hippocampus ([3]; female UCMS mice): no difference; also recorded: No significant effect
- total or surface α5 protein expression, hippocampus ([3]; male UCMS mice): no difference; also recorded: No significant effect
- cookie test latency to bite the cookie [4, 7]: a trend in the same direction
- cookie test latency to bite the cookie [4, 8]: reduces the latency to bite; also recorded: significantly reduced the latency to bite
- cookie test latency to bite the cookie [4, 9]: reduced the latency to bite; also recorded: significant decrease
- cookie test latency to bite the cookie [4, 10]: reduces the latency to bite; also recorded: significantly reduced the latency to bite
- cookie test, stress-induced behavior [4, 5]: No change; also recorded: failed to reduce
- cookie test latency to bite the cookie [4, 11]: No significant effect; also recorded: No significant difference
- cookie test, UCMS-induced behavioral phenotype [4, 6]: did not alter; also recorded: No significant effect

— article PMC5118774 (Frontiers in Pharmacology, 2016)
